# pEC50: −log10 of the molar value. Entries after “also recorded” stand apart in the source; their conditions may differ.
# Assays:
# [1] = system: Abeta oligomer effects on membrane trafficking; test: MTT membrane trafficking (formazan exocytosis) assay with Abeta oligomers in mature primary neurons; type: cell-based, rat; details: for block of Abeta oligomer-caused decrease of intracellular formazan-filled vesicles (puncta): neurons 3 weeks in vitro, for antibody stoichiometric amount (3 μM Aβ, 1.5 μM IgG), added prior to oligomers
# Protocol: (§1) MTT assay Primary neurons from E18 Sprague-Dawley rat embryos were plated at optimized concentrations in 384 well plates in NB media (Invitrogen). Neurons were maintained in cultures for 3 weeks, with twice weekly feeding of NB media with N2 supplement (Invitrogen). Vehicle or Abeta oligomer preparations (1.5 uM), followed by compounds were added to cells and incubated for 1 to 24 hr at 37° C. in 5% CO2. MTT reagent (3-(4,5-dimethylthizaol-2-yl)-2,5diphenyl tetrazolium bromide) reagent (Roche Molecular Biochemicals) was reconstituted in phosphate buffered saline to 5 mg/ml. 10 ul of MTT labeling reagent was added to each well and incubated at 37° C. for 1 h, then imaged.
# Each assay plate was formatted so that compounds were tested with and without Abeta on each plate.
# Experimental controls: Abeta 1-42 oligomers were made and used as positive controls. The oligomers can be made by any method, such as published methods (Dhalgren et al., '02, LeVine '04, Shrestha et al., '06, Puzzo et al., '05, Barghorn et al., '05, Johansson et al., '06). […] Negative controls included vehicle-treated neurons as well as neurons treated with Compound Z. These controls, on each plate, serve as normalization tools to calibrate assay performance on a plate-by-plate basis.
# Statistical software and Analysis: Data handling and analysis was accomplished by Cellomics VTI image analysis software and STORE automated database software. Statistical comparisons were made via pairwise Tukey-Kramer analysis to determine the significance of the separation between compound+Abeta oligomers from Abeta alone, and between compound alone from vehicle. […] Power analysis was set for a number of replicate screening wells that will minimize false negatives such as N=4. Rank ordering of compounds was done on the basis of secondary assay mechanism of action and physicochemical properties of the hit structures.
# Abeta 1-42 oligomers made according to published methods (Dhalgren et al., '02, LeVine '04, Shrestha et al., '06, Puzzo et al., '05, Barghorn et al., '05, Johansson et al., '06) or isolated from human brain tissue (Walsh et al., '02, Lesne et al., '06, Shankar et al '08) served as positive controls. Toxicity was monitored in each image-based assay via quantification of nuclear morphology visualized with the DNA binding dye DAPI (Invitrogen). Nuclei that were fragmented were considered to be in late stage apoptosis (Majno and Joris '95). Peptide lots producing unusual peptide size ranges or significant toxicity at standard concentrations on neurons were rejected.
# Image Processing: Images are captured and analyzed with the Cellomics VTI automated microscope platform. For statistical analysis, a Tukey-Kramer pair-wise comparison with unequal variance is used.
# Primary rat neurons grown for at least 3 weeks in vitro were chosen as the basis for this screening assay. […] More complex systems such as acute or organotypic brain slices are very useful but not amenable to high throughput screening. […] For this reason, primary neuronal cultures were chosen because of their ability to be used in high throughput screens and fidelity to what occurs in vivo.
# The exocytosis assay was adapted for use with mature primary neuronal cultures grown for 3 weeks in vitro.
# [2] = system: Abeta assemblies isolated from patients, membrane trafficking; test: Membrane trafficking assay with Abeta assemblies isolated from AD or normal patients; type: cell-based, rat; details: FIG. 4
# Protocol: as §1
# Abeta assemblies were isolated from patients with Alzheimer's Disease (AD) or from normal patients. The Abeta assemblies were tested for their ability to modulate membrane trafficking. […] The assay was performed as described herein.
# mice = test: Fear conditioning assay (Abeta oligomer-induced memory deficit); type: in vivo
# Source text: The formation of contextual memories is dependent upon the integrity of medial temporal lobe structures such as the hippocampus. […] Animals that show good learning will express an increase in freezing behavior when placed back into the same context. This freezing is absent in a novel context.
smiles,measurement,setting,value
COc1cc(CCC(C)NCc2ccc(C(F)(F)F)cc2)ccc1O (centres unmarked) [Compound Z],pEC50,"[1]; Neuron, read-out: inhibits oligomer effects on membrane trafficking, EC50, primary rat neurons, Abeta oligomers, FIG. 2B",5.15
same,block of Abeta oligomer-caused decrease of intracellular formazan-filled vesicles (puncta),[1],inhibits oligomer effects on membrane trafficking; also recorded: effective at stopping Abeta oligomer mediated effects on membrane trafficking
same,effect on Abeta assemblies isolated from age-matched normal individuals,[2]; Abeta assemblies from age-matched normal individuals,no effect
same,block of trafficking effects of AD-brain derived Abeta assemblies,[2]; IMW (10-100 KDa) Abeta assemblies isolated from AD patients,significantly blocked
same,block of oligomer-mediated memory deficits (contextual fear conditioning),"mice; 2 pmol dose, given prior to Abeta (200 nM), tested about 24 hours after training, p<0.05",completely blocked
same,"block of oligomer effects on memory, dose dependence",mice; administered prior to Abeta oligomer administration,blocked oligomer effects on memory in a dose-dependent manner
same,adverse behavioral changes,mice; any dose,No adverse behavioral changes were observed
same,effect of compound alone on memory,"mice; without Abeta, data not shown",No effect
"O[C@H]1[C@H](O)[C@@H](O)[C@H](O)[C@@H](O)[C@@H]1O [scyllo-inositol, reference compound]",block of Abeta oligomer-caused decrease of intracellular formazan-filled vesicles (puncta),[1],none were active
"C[N+](C)(C)CCCCCC[N+](C)(C)C [hexamethonium bromide, reference compound]",block of Abeta oligomer-caused decrease of intracellular formazan-filled vesicles (puncta),[1],none were active
"C[C@]12N[C@H](Cc3ccccc31)c1ccccc12 [MK-801, reference compound]",block of Abeta oligomer-caused decrease of intracellular formazan-filled vesicles (puncta),[1],none were active

# — patent publication US20130071330A1, “METHODS OF IDENTIFYING AGENTS EFFECTIVE TO TREAT COGNITIVE DECLINE AND DISEASES ASSOCIATED THEREWITH” (priority 2010, published 2013)
